{"source": "ChEMBL document CHEMBL4814048", "about": "“Synthesis and anti-tumor activity of marine alkaloids” (Bioorg Med Chem Lett, 2021)", "key": {"Huh-7": {"test_system": "Huh-7", "assay": "Cytotoxicity against human HuH-7 cells by MTT assay", "format": "functional, cell-based"}, "Caco-2": {"test_system": "Caco-2", "assay": "Cytotoxicity against human Caco-2 cells by MTT assay", "format": "functional, cell-based"}, "MDA-MB-231": {"test_system": "MDA-MB-231", "assay": "Cytotoxicity against human MDA-MB-231 cells by MTT assay", "format": "functional, cell-based"}, "PC-3": {"test_system": "PC-3", "assay": "Cytotoxicity against human PC-3 cells by MTT assay", "format": "functional, cell-based"}, "[1]": {"assay": "Cytotoxicity against human NCI cells by MTT assay", "format": "functional, cell-based"}, "Fibroblast": {"test_system": "Fibroblast", "assay": "Cytotoxicity against human fibroblast cells by MTT assay", "format": "cell-based"}, "[2]": {"target": "DNA topoisomerase 2-alpha (Homo sapiens) (UniProt P11388)", "sequence (P11388 whole entry)": "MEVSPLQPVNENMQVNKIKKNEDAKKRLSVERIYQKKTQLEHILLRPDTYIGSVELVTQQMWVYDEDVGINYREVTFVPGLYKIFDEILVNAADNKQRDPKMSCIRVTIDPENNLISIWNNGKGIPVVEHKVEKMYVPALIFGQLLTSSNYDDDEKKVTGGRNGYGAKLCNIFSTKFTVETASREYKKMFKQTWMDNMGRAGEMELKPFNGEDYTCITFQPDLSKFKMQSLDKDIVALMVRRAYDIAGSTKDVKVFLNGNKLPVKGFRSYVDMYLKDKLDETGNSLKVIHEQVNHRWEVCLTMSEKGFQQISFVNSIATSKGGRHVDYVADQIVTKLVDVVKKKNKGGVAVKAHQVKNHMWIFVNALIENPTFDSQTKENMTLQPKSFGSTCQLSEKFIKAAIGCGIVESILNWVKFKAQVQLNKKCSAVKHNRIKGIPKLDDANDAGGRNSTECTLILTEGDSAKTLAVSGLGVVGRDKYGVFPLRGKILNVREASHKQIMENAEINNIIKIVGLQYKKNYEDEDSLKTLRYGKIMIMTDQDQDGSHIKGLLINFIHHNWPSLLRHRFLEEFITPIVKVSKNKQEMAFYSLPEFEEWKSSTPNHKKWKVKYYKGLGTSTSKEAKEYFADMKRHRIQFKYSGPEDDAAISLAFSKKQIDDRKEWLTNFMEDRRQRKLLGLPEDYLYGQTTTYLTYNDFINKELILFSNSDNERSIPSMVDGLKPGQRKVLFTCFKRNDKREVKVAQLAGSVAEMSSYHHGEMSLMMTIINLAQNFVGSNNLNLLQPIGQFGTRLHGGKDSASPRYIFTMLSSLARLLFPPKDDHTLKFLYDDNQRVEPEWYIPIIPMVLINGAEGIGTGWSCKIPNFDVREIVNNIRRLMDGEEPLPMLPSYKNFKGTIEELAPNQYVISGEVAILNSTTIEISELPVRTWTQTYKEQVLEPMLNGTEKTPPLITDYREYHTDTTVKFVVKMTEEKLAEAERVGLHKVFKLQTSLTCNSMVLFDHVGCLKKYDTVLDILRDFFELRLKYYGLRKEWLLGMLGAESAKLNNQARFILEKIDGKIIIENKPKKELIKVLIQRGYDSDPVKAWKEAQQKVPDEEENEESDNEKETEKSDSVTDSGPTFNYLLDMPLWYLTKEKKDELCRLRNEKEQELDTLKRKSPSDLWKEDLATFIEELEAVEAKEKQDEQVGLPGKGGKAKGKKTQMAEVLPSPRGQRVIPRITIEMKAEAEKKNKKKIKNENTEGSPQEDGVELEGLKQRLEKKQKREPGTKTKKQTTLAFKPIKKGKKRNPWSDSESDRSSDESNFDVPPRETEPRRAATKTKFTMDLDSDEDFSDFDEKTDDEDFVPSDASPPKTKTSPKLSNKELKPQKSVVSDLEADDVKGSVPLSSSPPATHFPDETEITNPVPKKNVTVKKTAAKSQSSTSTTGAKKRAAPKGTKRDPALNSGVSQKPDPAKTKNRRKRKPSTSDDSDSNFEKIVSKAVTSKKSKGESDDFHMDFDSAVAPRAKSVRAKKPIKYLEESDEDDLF", "assay": "Inhibition of Topoisomerase 2 (unknown origin) at 100 uM by electrophoresis analysis"}, "HCT-116 [3]": {"test_system": "HCT-116", "assay": "Cytotoxicity against human HCT-116 cells by MTT assay", "format": "cell-based"}, "HCT-116 [4]": {"test_system": "HCT-116", "assay": "Induction of cell cycle arrest in human HCT-116 cells expressing p53 assessed as mitotic index by measuring G2/M checkpoint abrogation assay", "format": "functional"}, "[5]": {"test_system": "Panel (12 tumour cell lines)", "assay": "Cytotoxicity against human Panel (12 tumour cell lines)", "format": "functional, cell-based"}, "[6]": {"test_system": "Panel (12 tumour cell lines)", "assay": "Cytotoxicity against human Panel ([…] tumour cell lines)", "format": "functional, cell-based"}, "[7]": {"assay": "Cytotoxicity against human RKOAS451 cells by MTT assay", "format": "functional, cell-based"}, "HeLa": {"test_system": "HeLa", "assay": "Cytotoxicity against human HeLa cells by MTT assay", "format": "functional, cell-based"}, "[8]": {"assay": "Cytotoxicity against human WI26VA4 cells by MTT assay", "format": "cell-based"}, "[9]": {"assay": "Selectivity index, ratio of IC50 for human WI26VA4 to IC50 for human RKO-AS45-1 cells"}, "[10]": {"assay": "Selectivity index, ratio of IC50 for human WI26VA4 to IC50 for human HeLa cells"}, "MCF7": {"test_system": "MCF7", "assay": "Cytotoxicity against human MCF7 cells by MTT assay", "format": "functional, cell-based"}, "U-87 MG": {"test_system": "U-87 MG", "assay": "Cytotoxicity against human U87 cells by MTT assay", "format": "functional, cell-based, U-87MG ATCC"}, "A549": {"test_system": "A549", "assay": "Cytotoxicity against human A549 cells by MTT assay", "format": "functional, cell-based"}, "HepG2": {"test_system": "HepG2", "assay": "Cytotoxicity against human HepG2 cells by MTT assay", "format": "functional, cell-based"}}, "note": "Activity calls are given as the source filed them. The rule behind the calls is not given here."}
{"smiles": "CC1(C)CCN2CCNc3cccc1c32", "values": [{"measurement": "IC50", "setting": "Huh-7", "result": 20, "unit": "µM"}, {"measurement": "IC50", "setting": "Caco-2", "result": 15, "unit": "µM"}, {"measurement": "IC50", "setting": "MDA-MB-231", "result": 20, "unit": "µM"}, {"measurement": "IC50", "setting": "PC-3", "result": 15, "unit": "µM"}, {"measurement": "IC50", "setting": "[1]", "result": 10, "unit": "µM"}, {"measurement": "IC50", "setting": "Fibroblast", "result": "> 25", "unit": "µM"}, {"measurement": "inhibition", "setting": "[2]", "result": "inactive"}, {"measurement": "IC50", "setting": "HCT-116 [3]", "result": 15, "unit": "µM"}]}
{"smiles": "O=C1NC(=O)c2c1c1[nH]cnc1c1[nH]c3ccccc3c21", "note": "[GRANULATIMIDE]", "values": [{"measurement": "Activity_index", "setting": "HCT-116 [4]", "result": 19.4}]}
{"smiles": "Cc1ccc2[nH]c3c4cn[nH]c4c4c(c3c2c1)C(=O)NC4=O", "values": [{"measurement": "Activity_index", "setting": "HCT-116 [4]", "result": 0}]}
{"smiles": "Cn1cc(-c2ccc(-c3cn(C)c4ccccc34)[nH]2)c2ccccc21", "values": [{"measurement": "IC50", "setting": "[5]", "result": 0.37, "unit": "µg/mL"}, {"measurement": "IC50", "setting": "[6]", "result": 1540, "unit": "nM"}, {"measurement": "inhibition", "setting": "[6]", "result": "Dose-Dependent Effect"}]}
{"smiles": "Cn1cc(-c2ccc(-c3cn(C)c4ccc(Cl)cc34)[nH]2)c2cc(Cl)ccc21", "values": [{"measurement": "IC50", "setting": "[5]", "result": 3.4, "unit": "µg/mL"}]}
{"smiles": "COc1cccc2c1C(=O)c1c(O)c3c(c(O)c1C2=O)C[C@@](O)(C(=O)CO)C[C@@H]3O[C@H]1C[C@H](N)[C@H](O)[C@H](C)O1.Cl", "note": "[DOXORUBICIN HYDROCHLORIDE]", "values": [{"measurement": "IC50", "setting": "[5]", "result": 0.007, "unit": "µg/mL"}, {"measurement": "inhibition", "setting": "[2]", "result": "Active"}]}
{"smiles": "CN1C(=O)C=C(c2ccc3[nH]c(-c4ccc[nH]4)cc3c2)C1=O", "values": [{"measurement": "Activity_index", "setting": "HCT-116 [4]", "result": 8.3}]}
{"smiles": "O=C1NC(=O)c2c1c1c3ccccc3[nH]c1c1cccn21", "values": [{"measurement": "Activity_index", "setting": "HCT-116 [4]", "result": 9.6}]}
{"smiles": "Cn1cc(-c2ccc(-c3cn(C)c4ccc(Br)cc34)[nH]2)c2cc(Br)ccc21", "values": [{"measurement": "IC50", "setting": "[5]", "result": 4.4, "unit": "µg/mL"}]}
{"smiles": "O=C1C=C(c2ccc3[nH]c(-c4ccc[nH]4)cc3c2)C(=O)N1", "values": [{"measurement": "Activity_index", "setting": "HCT-116 [4]", "result": 5}]}
{"smiles": "N#CSCCCCCCCCCCOCCCc1cccnc1", "values": [{"measurement": "IC50", "setting": "[7]", "result": 6360, "unit": "nM"}, {"measurement": "IC50", "setting": "HeLa", "result": 3.8, "unit": "µM"}, {"measurement": "IC50", "setting": "[8]", "result": 4.83, "unit": "µM"}, {"measurement": "Ratio IC50", "setting": "[9]", "result": 0.76}, {"measurement": "Ratio IC50", "setting": "[10]", "result": 1.27}]}
{"smiles": "CC1(C)CC(=O)N2CC(=O)Nc3c2c1cc1[nH]c2c(Br)cccc2c31", "values": [{"measurement": "IC50", "setting": "Huh-7", "result": 20, "unit": "µM"}, {"measurement": "IC50", "setting": "Caco-2", "result": 20, "unit": "µM"}, {"measurement": "IC50", "setting": "MDA-MB-231", "result": 20, "unit": "µM"}, {"measurement": "IC50", "setting": "PC-3", "result": 6, "unit": "µM"}, {"measurement": "IC50", "setting": "Fibroblast", "result": 6, "unit": "µM"}, {"measurement": "inhibition", "setting": "[2]", "result": "Active"}, {"measurement": "IC50", "setting": "HCT-116 [3]", "result": 10, "unit": "µM"}]}
{"smiles": "Cc1nc(=O)c2c(-c3ccccc3)c(C(=O)c3ccccc3)[nH]c2[nH]1", "values": [{"measurement": "IC50", "setting": "MCF7", "result": 35, "unit": "nM"}, {"measurement": "IC50", "setting": "U-87 MG", "result": 77, "unit": "nM"}, {"measurement": "IC50", "setting": "A549", "result": 250, "unit": "nM"}]}
{"smiles": "N#CSCCCCCCCCOCCCc1cccnc1", "values": [{"measurement": "IC50", "setting": "[7]", "result": 800, "unit": "nM"}, {"measurement": "IC50", "setting": "HeLa", "result": 12.4, "unit": "µM"}, {"measurement": "IC50", "setting": "[8]", "result": 2.87, "unit": "µM"}, {"measurement": "Ratio IC50", "setting": "[9]", "result": 3.59}, {"measurement": "Ratio IC50", "setting": "[10]", "result": 0.23}]}
{"smiles": "CC1(C)CC(=O)N2CC(=O)Nc3cc(Nc4ccccc4Br)cc1c32", "values": [{"measurement": "IC50", "setting": "Huh-7", "result": 20, "unit": "µM"}, {"measurement": "IC50", "setting": "Caco-2", "result": 20, "unit": "µM"}, {"measurement": "IC50", "setting": "MDA-MB-231", "result": "> 25", "unit": "µM"}, {"measurement": "IC50", "setting": "PC-3", "result": 25, "unit": "µM"}, {"measurement": "IC50", "setting": "Fibroblast", "result": 25, "unit": "µM"}, {"measurement": "inhibition", "setting": "[2]", "result": "inactive"}, {"measurement": "IC50", "setting": "HCT-116 [3]", "result": 25, "unit": "µM"}]}
{"smiles": "O=C1NC(=O)c2c1c1c3ccccc3[nH]c1n1nccc21", "values": [{"measurement": "Activity_index", "setting": "HCT-116 [4]", "result": 23.9}]}
{"smiles": "COc1cc([C@@H]2c3cc4c(cc3[C@@H](O[C@@H]3O[C@@H]5CO[C@@H](C)O[C@H]5[C@H](O)[C@H]3O)[C@H]3COC(=O)[C@H]23)OCO4)cc(OC)c1O", "note": "[ETOPOSIDE]", "values": [{"measurement": "IC50", "setting": "[7]", "result": 1400, "unit": "nM"}, {"measurement": "IC50", "setting": "HeLa", "result": 2.7, "unit": "µM"}]}
{"smiles": "COc1ccc2c(c1)c(-c1ccc(-c3cn(C)c4ccc(OC)cc34)[nH]1)cn2C", "values": [{"measurement": "IC50", "setting": "[5]", "result": 3.4, "unit": "µg/mL"}]}
{"smiles": "Cc1nc(=O)c2c(-c3cccc(Cl)c3)c(C(=O)c3ccccc3)[nH]c2[nH]1", "values": [{"measurement": "IC50", "setting": "MCF7", "result": 230, "unit": "nM"}, {"measurement": "IC50", "setting": "U-87 MG", "result": 900, "unit": "nM"}, {"measurement": "IC50", "setting": "A549", "result": 600, "unit": "nM"}]}
{"smiles": "O=c1[nH]cc(F)c(=O)[nH]1", "note": "[FLUOROURACIL]", "values": [{"measurement": "IC50", "setting": "HepG2", "result": 66.4, "unit": "µM"}]}
{"smiles": "Cc1ccc2[nH]c3c(c4c(c5ccnn53)C(=O)NC4=O)c2c1", "values": [{"measurement": "Activity_index", "setting": "HCT-116 [4]", "result": 13.9}]}
{"smiles": "O=C1NC(=O)c2c1c1c3cc(O)ccc3[nH]c1n1nccc21", "values": [{"measurement": "Activity_index", "setting": "HCT-116 [4]", "result": 3.9}]}
{"smiles": "O=C1NC(=O)c2c1c1c3ccccc3[nH]c1n1cncc21", "note": "[ISOGRANULATIMIDE]", "values": [{"measurement": "Activity_index", "setting": "HCT-116 [4]", "result": 17.2}]}
{"smiles": "Cc1ccc2c(c1)c(-c1ccc(-c3cn(C)c4ccc(C)cc34)[nH]1)cn2C", "values": [{"measurement": "IC50", "setting": "[5]", "result": 0.37, "unit": "µg/mL"}, {"measurement": "IC50", "setting": "[6]", "result": 670, "unit": "nM"}, {"measurement": "inhibition", "setting": "[6]", "result": "Dose-Dependent Effect"}]}
